Source: DBAASP
Converted amounts (≈) assume the structure as drawn.

Experiments:
Test in all cases: ≥ marks a high value that may be exact or a test limit, other limits are often not marked, values filed in µg/mL are converted to µM
[1] = tested on: Streptococcus mutans ATCC UA159
[2] = tested on: Staphylococcus aureus NCTC 10788
[3] = tested on: Escherichia coli NCTC 10418
[4] = tested on: Enterococcus faecalis NCTC 12697
[5] = tested on: Staphylococcus aureus NCTC 12493
[6] = tested on: Candida albicans NCYC 1467
[7] = tested on: Pseudomonas aeruginosa ATCC 27853
[8] = tested on: Pseudomonas aeruginosa ATCC 19660
[9] = tested on: Staphylococcus epidermidis ATCC 51625
[10] = tested on: Acinetobacter baumannii ATCC 17978D-5
[11] = tested on: Klebsiella aerogenes ATCC 13048
[12] = tested on: Staphylococcus aureus ATCC 33591
[13] = tested on: Streptococcus pneumoniae ATCC 49619
[14] = tested on: Enterococcus faecium ATCC 700221
[15] = tested on: Pseudomonas aeruginosa 25349
[16] = tested on: Staphylococcus aureus ATCC 29213
[17] = tested on: Pseudomonas aeruginosa CICC 11431
[18] = tested on: Pseudomonas aeruginosa CICC 21630
[19] = tested on: Escherichia coli ATCC 25922
[20] = tested on: Pseudomonas aeruginosa CICC 21625
[21] = tested on: Pseudomonas aeruginosa CICC 11411
[22] = tested on: Pseudomonas aeruginosa CICC 11421
[23] = tested on: Pseudomonas aeruginosa CICC 10419
[24] = tested on: Pseudomonas aeruginosa 21328
[25] = tested on: Candida albicans NRRL Y-6359
[26] = tested on: Candida albicans
[27] = tested on: Candida albicans 17-88
[28] = tested on: Staphylococcus aureus MR
[29] = tested on: Cutibacterium acnes
[30] = tested on: Candida parapsilosis NRRL Y-1763
[31] = tested on: Debaryomyces hansenii
[32] = tested on: Candida albicans NRRL Y-326
[33] = tested on: Pseudomonas aeruginosa
[34] = tested on: Acinetobacter baumannii
[35] = tested on: Candida krusei
[36] = tested on: Candida glabrata
[37] = tested on: Candida parapsilosis NRRL Y-1761
[38] = tested on: Kluyveromyces lactis
[39] = tested on: Klebsiella pneumoniae ATCC 10031
[40] = tested on: Candida dubliniensis
[41] = tested on: Cutibacterium acnes ATCC 11827
[42] = tested on: Staphylococcus aureus ATCC 33592
[43] = tested on: Cutibacterium acnes ATCC 6919
[44] = tested on: Staphylococcus aureus
[45] = tested on: Candida tropicalis
[46] = tested on: Candida parapsilosis
[47] = tested on: Enterobacter cloacae
[48] = tested on: Klebsiella pneumoniae
[49] = tested on: Acinetobacter baumannii ATCC 17978

CC[C@H](C)[C@H](NC(=O)[C@H](CCCCN)NC(=O)[C@H](CCCN=C(N)N)NC(=O)[C@@H](NC(=O)[C@@H](N)Cc1ccc(O)cc1)[C@@H](C)CC)C(=O)N[C@@H](CCCN=C(N)N)C(=O)N[C@@H](CCCN=C(N)N)C(=O)N[C@@H](Cc1ccccc1)C(=O)N[C@@H](Cc1ccccc1)C(=O)N[C@@H](CCCCN)C(=O)N[C@H](C(=O)N[C@@H](CC(C)C)C(=O)N[C@@H](CC(N)=O)C(=O)N[C@@H](CCCCN)C(=O)N[C@@H](CC(N)=O)C(=O)N[C@@H](CC(C)C)C(=O)N[C@@H](CCCCN)C(=O)N[C@@H](CCCCN)C(N)=O)[C@@H](C)O [YIRKIRRFFKTLNKNLKK] was tested, and the MIC [1] was 13.5 µM (≈ 32 µg/mL).
In the case of CSCC[C@H](NC(=O)[C@H](CC(=O)O)NC(=O)[C@@H](NC(=O)[C@@H](NC(=O)[C@H](C)NC(=O)[C@H](CC(N)=O)NC(=O)[C@H](CC(C)C)NC(=O)[C@H](C)NC(=O)[C@H](C)NC(=O)[C@H](CCCCN)NC(=O)CNC(=O)[C@H](C)NC(=O)[C@H](C)NC(=O)[C@H](CCCCN)NC(=O)CNC(=O)[C@@H](NC(=O)[C@H](Cc1cnc[nH]1)NC(=O)[C@H](CCCCN)NC(=O)[C@H](CC(C)C)NC(=O)[C@H](CC(C)C)NC(=O)[C@@H](NC(=O)[C@H](CCCCN)NC(=O)[C@H](Cc1c[nH]c2ccccc12)NC(=O)[C@H](CC(C)C)NC(=O)[C@H](C)N)[C@@H](C)O)C(C)C)C(C)C)[C@@H](C)O)C(=O)N[C@H](C(=O)N[C@@H](CC(N)=O)C(=O)N[C@@H](CCC(N)=O)C(N)=O)C(C)C [ALWKTLLKHVGKAAGKAALNAVTDMVNQ], the MIC [2] is reported as 4 µM (≈ 11.8 µg/mL), the MIC [3] is reported as 8 µM (≈ 23.6 µg/mL) and the MIC [4] is reported as ≥ 32 µM. It also gave an MIC [5] of 8 µM (≈ 23.6 µg/mL), an MIC [6] of 4 µM (≈ 11.8 µg/mL) and an MIC [7] of 16 µM (≈ 47.2 µg/mL).
C[C@H](NC(=O)[C@H](Cc1ccccc1)NC(=O)CNC(=O)[C@@H]1CCCN1C(=O)[C@@H](N)CS)C(=O)N[C@@H](CCCCN)C(=O)N[C@@H](CCCCN)C(=O)N[C@@H](Cc1ccccc1)C(=O)N[C@@H](C)C(=O)N[C@@H](CCCCN)C(=O)N[C@@H](CCCCN)C(=O)N[C@@H](Cc1ccccc1)C(=O)N[C@@H](CCCCN)C(=O)N[C@@H](CCCCN)C(=O)N[C@@H](Cc1ccccc1)C(=O)N[C@@H](C)C(=O)N[C@@H](CCCCN)C(=O)N[C@@H](CCCCN)C(=O)N[C@@H](Cc1ccccc1)C(=O)N[C@@H](C)C(=O)N[C@@H](CCCCN)C(=O)N[C@@H](Cc1ccccc1)C(=O)N[C@@H](C)C(=O)N[C@@H](Cc1ccccc1)C(=O)N[C@@H](C)C(=O)N[C@@H](Cc1ccccc1)C(=O)O [CPGFAKKFAKKFKKFAKKFAKFAFAF] gave an MIC [8] of 10.6 µM (≈ 32 µg/mL), an MIC [9] of 5.28 µM (≈ 16 µg/mL) and an MIC [10] of 5.28 µM (≈ 16 µg/mL). The MIC [11] was 10.6 µM (≈ 32 µg/mL), the MIC [12] was 10.6 µM (≈ 32 µg/mL) and the MIC [7] was 10.6 µM (≈ 32 µg/mL). For the same compound, the MIC [13] was 10.6 µM (≈ 32 µg/mL) and the MIC [14] was 5.28 µM (≈ 16 µg/mL).
In the case of CC(C)C[C@H](NC(=O)[C@H](CCCN=C(N)N)NC(=O)[C@H](CCCN=C(N)N)NC(=O)[C@H](CC(C)C)NC(=O)[C@H](CCCN=C(N)N)NC(=O)[C@H](CCCN=C(N)N)NC(=O)[C@H](CCCN=C(N)N)NC(=O)[C@H](Cc1c[nH]c2ccccc12)NC(=O)[C@H](Cc1c[nH]c2ccccc12)NC(=O)[C@H](CCCN=C(N)N)NC(=O)[C@H](CCCN=C(N)N)NC(=O)[C@H](CCCN=C(N)N)NC(=O)[C@H](CC(C)C)NC(=O)[C@H](CCCN=C(N)N)NC(=O)[C@H](CCCN=C(N)N)NC(=O)[C@@H](N)CC(C)C)C(N)=O [LRRLRRRWWRRRLRRL], the MIC [15] is reported as 4.7 µM (≈ 11.3 µg/mL), the MIC [16] is reported as 3.33 µM (≈ 8 µg/mL) and the MIC [17] is reported as 6.65 µM (≈ 16 µg/mL). It also gave an MIC [18] of 3.33 µM (≈ 8 µg/mL), an MIC [19] of 6.65 µM (≈ 16 µg/mL) and an MIC [20] of 6.65 µM (≈ 16 µg/mL). For the same compound, the MIC [21] was 3.33 µM (≈ 8 µg/mL), the MIC [22] was 6.65 µM (≈ 16 µg/mL) and the MIC [23] was 6.65 µM (≈ 16 µg/mL). It also gave an MIC [24] of 13.3 µM (≈ 32 µg/mL).
Compound CC[C@H](C)[C@@H]1NC(=O)CNC(=O)[C@H](CCCCN)NC(=O)[C@H](Cc2ccc(O)cc2)NC(=O)[C@@H]2CSSC[C@H](NC1=O)C(=O)N[C@@H](Cc1ccccc1)C(=O)N[C@@H](CCCCN)C(=O)N[C@@H](CCCCN)C(=O)N[C@H](C(=O)N[C@@H](CCCCN)C(N)=O)CSSC[C@H](NC(=O)[C@H](Cc1ccccc1)NC(=O)[C@@H](N)CCCN=C(N)N)C(=O)N[C@@H](Cc1c[nH]c3ccccc13)C(=O)N[C@@H](CCCCN)C(=O)N[C@@H](C(C)C)C(=O)N2 [RFCWKVCYKGICFKKCK] has an MIC [25] of 1.87 µM (≈ 3.99 µg/mL), an MIC [26] of 10.6 µM (≈ 22.7 µg/mL) and an MIC [8] of 1.87 µM (≈ 3.99 µg/mL). It also gave an MIC [27] of 15 µM (≈ 32 µg/mL), an MIC [28] of 1.87 µM (≈ 3.99 µg/mL) and an MIC [29] of 1.87 µM (≈ 3.99 µg/mL). The MIC [30] was 0.934 µM (≈ 2 µg/mL), the MIC [9] was 3.74 µM (≈ 7.98 µg/mL) and the MIC [31] was 7.5 µM (≈ 16 µg/mL). The MIC [32] was 7.47 µM (≈ 16 µg/mL), the MIC [33] was 1.87 µM (≈ 3.99 µg/mL) and the MIC [34] was 3.74 µM (≈ 7.98 µg/mL). The MIC [35] was 10.6 µM (≈ 22.7 µg/mL), the MIC [36] was 15 µM (≈ 32 µg/mL) and the MIC [37] was 7.47 µM (≈ 16 µg/mL). The MIC [38] was 3.7 µM (≈ 7.9 µg/mL), the MIC [39] was 3.74 µM (≈ 7.98 µg/mL) and the MIC [40] was 7.5 µM (≈ 16 µg/mL). The MIC [41] was 3.74 µM (≈ 7.98 µg/mL), the MIC [42] was 1.87 µM (≈ 3.99 µg/mL) and the MIC [7] was 1.87 µM (≈ 3.99 µg/mL). For the same compound, the MIC [43] was 3.74 µM (≈ 7.98 µg/mL), the MIC [44] was 2.64 µM (≈ 5.64 µg/mL) and the MIC [45] was 2.65 µM (≈ 5.66 µg/mL). It also gave an MIC [46] of 15 µM (≈ 32 µg/mL), an MIC [47] of 3.74 µM (≈ 7.98 µg/mL) and an MIC [48] of 2.64 µM (≈ 5.64 µg/mL). The MIC [49] was 7.47 µM (≈ 16 µg/mL).
